In ChEMBL document CHEMBL1201862, “PubChem BioAssay data set” (2004):
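Method: 48-hour compound exposure of cells in 96-well plates, five concentrations, linear interpolation of endpoints. GI50 marks 50% less growth.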 Activity calls are given as the source filed them. Cut-off read from the data, not from the text of the source: active = GI50 up to about 1.1 µM and inactive = higher.

How the values were obtained:
Test in all cases: NCI anticancer screen, dose series, 48 h
786-0 = system: 786-0
A498 = system: A498
A549 = system: A549
ACHN = system: ACHN
BT-549 = system: BT-549
CAKI-1 = system: CAKI-1
CCRF-CEM = system: CCRF-CEM
COLO 205 = system: COLO 205
DU-145 = system: DU-145
EKVX = system: EKVX
HCC 2998 = system: HCC 2998
HCT-116 = system: HCT-116
HCT-15 = system: HCT-15
HL-60 = system: HL-60
HOP-62 = system: HOP-62
HT-29 = system: HT-29
Hs-578T = system: Hs-578T
IGROV-1 = system: IGROV-1
K562 = system: K562
KM12 = system: KM12
LOX IMVI = system: LOX IMVI
M14 = system: M14
MCF7 = system: MCF7
MDA-MB-231 = system: MDA-MB-231
MDA-MB-435 = system: MDA-MB-435
MDA-N = system: MDA-N
MOLT-4 = system: MOLT-4
Malme-3M = system: Malme-3M
NCI-H226 = system: NCI-H226
NCI-H23 = system: NCI-H23
NCI-H460 = system: NCI-H460
NCI-H522 = system: NCI-H522
NCI/ADR-RES = system: NCI/ADR-RES
OVCAR-3 = system: OVCAR-3
OVCAR-4 = system: OVCAR-4
OVCAR-5 = system: OVCAR-5
OVCAR-8 = system: OVCAR-8
PC-3 = system: PC-3
RPMI-8226 = system: RPMI-8226
RXF 393 = system: RXF 393
SF-268 = system: SF-268
SF-295 = system: SF-295
SF-539 = system: SF-539
SK-MEL-28 = system: SK-MEL-28
SK-MEL-5 = system: SK-MEL-5
SK-OV-3 = system: SK-OV-3
SN12C = system: SN12C
SNB-19 = system: SNB-19
SNB-75 = system: SNB-75
SR = system: SR
SW-620 = system: SW-620
T47D = system: T47D
TK-10 = system: TK-10
U-251 = system: U-251
UACC-257 = system: UACC-257
UACC-62 = system: UACC-62
UO-31 = system: UO-31
HOP-92 = system: HOP-92
SK-MEL-2 = system: SK-MEL-2

For `C#CCOCC12C=CC(O1)C1C(=O)OCC12` (centres undefined), the GI50 (786-0) was > 100 µM (inactive), the GI50 (A498) was > 100 µM (inactive) and the GI50 (A549) was > 100 µM (inactive). The GI50 (ACHN) was > 100 µM (inactive), the GI50 (BT-549) was > 100 µM (inactive) and the GI50 (CAKI-1) was > 100 µM (inactive). The GI50 (CCRF-CEM) was > 100 µM (inactive), the GI50 (COLO 205) was > 100 µM (inactive) and the GI50 (DU-145) was > 100 µM (inactive). The GI50 (EKVX) was > 100 µM (inactive), the GI50 (HCC 2998) was > 100 µM (inactive) and the GI50 (HCT-116) was > 100 µM (inactive). For the same molecule, the GI50 (HCT-15) was over 100 µM, the GI50 (HL-60) was > 100 µM (inactive) and the GI50 (HOP-62) was > 100 µM (inactive). The GI50 (HT-29) was > 100 µM (inactive), the GI50 (Hs-578T) was > 100 µM (inactive) and the GI50 (IGROV-1) was > 100 µM (inactive). The GI50 (K562) was > 100 µM (inactive), the GI50 (KM12) was > 100 µM (inactive) and the GI50 (LOX IMVI) was > 100 µM (inactive). For the same molecule, the GI50 (M14) was > 100 µM (inactive), the GI50 (MCF7) was > 100 µM (inactive) and the GI50 (MDA-MB-231) was > 100 µM (inactive). The GI50 (MDA-MB-435) was > 100 µM (inactive), the GI50 (MDA-N) was > 100 µM (inactive) and the GI50 (MOLT-4) was > 100 µM (inactive). The GI50 (Malme-3M) was > 100 µM (inactive), the GI50 (NCI-H226) was > 100 µM (inactive) and the GI50 (NCI-H23) was > 100 µM (inactive). For the same molecule, the GI50 (NCI-H460) was > 100 µM (inactive), the GI50 (NCI-H522) was > 100 µM (inactive) and the GI50 (NCI/ADR-RES) was > 100 µM (inactive). For the same molecule, the GI50 (OVCAR-3) was > 100 µM (inactive), the GI50 (OVCAR-4) was > 100 µM (inactive) and the GI50 (OVCAR-5) was > 100 µM (inactive). The GI50 (OVCAR-8) was > 100 µM (inactive), the GI50 (PC-3) was > 100 µM (inactive) and the GI50 (RPMI-8226) was > 100 µM (inactive). The GI50 (RXF 393) was > 100 µM (inactive), the GI50 (SF-268) was > 100 µM (inactive) and the GI50 (SF-295) was > 100 µM (inactive). For the same molecule, the GI50 (SF-539) was > 100 µM (inactive), the GI50 (SK-MEL-28) was > 100 µM (inactive) and the GI50 (SK-MEL-5) was > 100 µM (inactive). The GI50 (SK-OV-3) was > 100 µM (inactive), the GI50 (SN12C) was > 100 µM (inactive) and the GI50 (SNB-19) was > 100 µM (inactive). For the same molecule, the GI50 (SNB-75) was > 100 µM (inactive), the GI50 (SR) was > 100 µM (inactive) and the GI50 (SW-620) was > 100 µM (inactive). The GI50 (T47D) was > 100 µM (inactive), the GI50 (TK-10) was > 100 µM (inactive) and the GI50 (U-251) was > 100 µM (inactive). For the same molecule, the GI50 (UACC-257) was > 100 µM (inactive), the GI50 (UACC-62) was > 100 µM (inactive) and the GI50 (UO-31) was > 100 µM (inactive).
For `O=C1NC(N2CCOCC2)=N/C1=C\c1ccco1`, the GI50 (786-0) was > 100 µM (inactive), the GI50 (A549) was > 100 µM (inactive) and the GI50 (ACHN) was > 100 µM (inactive). For the same molecule, the GI50 (BT-549) was > 100 µM (inactive), the GI50 (CAKI-1) was > 100 µM (inactive) and the GI50 (CCRF-CEM) was > 100 µM (inactive). For the same molecule, the GI50 (COLO 205) was > 100 µM (inactive), the GI50 (DU-145) was > 100 µM (inactive) and the GI50 (EKVX) was > 100 µM (inactive). The GI50 (HCC 2998) was > 100 µM (inactive), the GI50 (HCT-116) was > 100 µM (inactive) and the GI50 (HCT-15) was over 100 µM. The GI50 (HL-60) was > 100 µM (inactive), the GI50 (HOP-62) was > 100 µM (inactive) and the GI50 (HOP-92) was > 100 µM (inactive). The GI50 (HT-29) was > 100 µM (inactive), the GI50 (Hs-578T) was > 100 µM (inactive) and the GI50 (IGROV-1) was > 100 µM (inactive). The GI50 (KM12) was > 100 µM (inactive), the GI50 (LOX IMVI) was > 100 µM (inactive) and the GI50 (M14) was > 100 µM (inactive). The GI50 (MCF7) was > 100 µM (inactive), the GI50 (MDA-MB-231) was > 100 µM (inactive) and the GI50 (MDA-MB-435) was > 100 µM (inactive). The GI50 (MDA-N) was > 100 µM (inactive), the GI50 (MOLT-4) was > 100 µM (inactive) and the GI50 (NCI-H226) was > 100 µM (inactive). The GI50 (NCI-H23) was > 100 µM (inactive), the GI50 (NCI-H522) was > 100 µM (inactive) and the GI50 (NCI/ADR-RES) was > 100 µM (inactive). The GI50 (OVCAR-3) was > 100 µM (inactive), the GI50 (OVCAR-4) was > 100 µM (inactive) and the GI50 (OVCAR-5) was > 100 µM (inactive). For the same molecule, the GI50 (OVCAR-8) was > 100 µM (inactive), the GI50 (PC-3) was > 100 µM (inactive) and the GI50 (RPMI-8226) was > 100 µM (inactive). For the same molecule, the GI50 (RXF 393) was > 100 µM (inactive), the GI50 (SF-268) was > 100 µM (inactive) and the GI50 (SF-295) was > 100 µM (inactive). The GI50 (SF-539) was > 100 µM (inactive), the GI50 (SK-MEL-28) was > 100 µM (inactive) and the GI50 (SK-MEL-2) was > 100 µM (inactive). For the same molecule, the GI50 (SK-MEL-5) was > 100 µM (inactive), the GI50 (SK-OV-3) was > 100 µM (inactive) and the GI50 (SN12C) was > 100 µM (inactive). The GI50 (SNB-19) was > 100 µM (inactive), the GI50 (SNB-75) was > 100 µM (inactive) and the GI50 (SR) was > 100 µM (inactive). For the same molecule, the GI50 (SW-620) was > 100 µM (inactive), the GI50 (T47D) was > 100 µM (inactive) and the GI50 (TK-10) was > 100 µM (inactive). For the same molecule, the GI50 (U-251) was > 100 µM (inactive), the GI50 (UACC-257) was > 100 µM (inactive) and the GI50 (UACC-62) was > 100 µM (inactive). The GI50 (UO-31) was > 100 µM (inactive).
With `CCOC(=O)C(=O)C(=O)NN(C)C1=NCCN1` the GI50 (786-0) was > 100 µM (inactive), the GI50 (A549) was > 100 µM (inactive) and the GI50 (ACHN) was > 100 µM (inactive). The GI50 (BT-549) was > 100 µM (inactive), the GI50 (CCRF-CEM) was > 100 µM (inactive) and the GI50 (COLO 205) was > 100 µM (inactive). For the same molecule, the GI50 (DU-145) was > 100 µM (inactive), the GI50 (EKVX) was > 100 µM (inactive) and the GI50 (HCC 2998) was > 100 µM (inactive). For the same molecule, the GI50 (HCT-116) was > 100 µM (inactive), the GI50 (HCT-15) was over 100 µM and the GI50 (HL-60) was > 100 µM (inactive). For the same molecule, the GI50 (HOP-62) was > 100 µM (inactive), the GI50 (HOP-92) was > 100 µM (inactive) and the GI50 (HT-29) was > 100 µM (inactive). For the same molecule, the GI50 (Hs-578T) was > 100 µM (inactive), the GI50 (IGROV-1) was > 100 µM (inactive) and the GI50 (K562) was > 100 µM (inactive). The GI50 (KM12) was > 100 µM (inactive), the GI50 (LOX IMVI) was > 100 µM (inactive) and the GI50 (M14) was > 100 µM (inactive). For the same molecule, the GI50 (MCF7) was > 100 µM (inactive), the GI50 (MDA-MB-231) was > 100 µM (inactive) and the GI50 (MDA-MB-435) was > 100 µM (inactive). The GI50 (MDA-N) was > 100 µM (inactive), the GI50 (MOLT-4) was > 100 µM (inactive) and the GI50 (Malme-3M) was > 100 µM (inactive). The GI50 (NCI-H226) was > 100 µM (inactive), the GI50 (NCI-H23) was > 100 µM (inactive) and the GI50 (NCI-H460) was > 100 µM (inactive). The GI50 (NCI-H522) was > 100 µM (inactive), the GI50 (NCI/ADR-RES) was > 100 µM (inactive) and the GI50 (OVCAR-3) was > 100 µM (inactive). For the same molecule, the GI50 (OVCAR-4) was > 100 µM (inactive), the GI50 (OVCAR-5) was > 100 µM (inactive) and the GI50 (OVCAR-8) was > 100 µM (inactive). For the same molecule, the GI50 (PC-3) was > 100 µM (inactive), the GI50 (RPMI-8226) was > 100 µM (inactive) and the GI50 (RXF 393) was > 100 µM (inactive). The GI50 (SF-268) was > 100 µM (inactive), the GI50 (SF-295) was > 100 µM (inactive) and the GI50 (SF-539) was > 100 µM (inactive). The GI50 (SK-MEL-28) was > 100 µM (inactive), the GI50 (SK-MEL-2) was > 100 µM (inactive) and the GI50 (SK-MEL-5) was > 100 µM (inactive). For the same molecule, the GI50 (SK-OV-3) was > 100 µM (inactive), the GI50 (SN12C) was > 100 µM (inactive) and the GI50 (SNB-19) was > 100 µM (inactive). The GI50 (SNB-75) was > 100 µM (inactive), the GI50 (SR) was > 100 µM (inactive) and the GI50 (SW-620) was > 100 µM (inactive). The GI50 (T47D) was > 100 µM (inactive), the GI50 (TK-10) was > 100 µM (inactive) and the GI50 (U-251) was > 100 µM (inactive). For the same molecule, the GI50 (UACC-257) was > 100 µM (inactive), the GI50 (UACC-62) was > 100 µM (inactive) and the GI50 (UO-31) was > 100 µM (inactive).
